One test has as its target T1, recombinant human HDAC1 (Homo sapiens, UniProt Q13547).
T1 construct: FLAG (C); made in house; host or cells: Hi5 insect cells
In words: In vitro enzyme assay of recombinant HDAC1 (Fluor de Lys deacetylase assay). Format: biochemical. The conditions noted are these: recombinant human HDAC1 produced in Hi5 insect cells; acetylated histone H4 peptide substrate; read-out: Test (a) IC50. As for the experimental part:
(a) In Vitro Enzyme Assay of Recombinant HDAC1
HDAC inhibitors were screened against recombinant human HDAC1 produced in Hi5 insect cells. The enzyme was cloned with a FLAG tag at the C-terminal of the gene and affinity purified using Anti-FLAG M2 agarose from SIGMA (A2220).
The deacetylase assays were carried out in a 50 μl reaction. […] The reaction was stopped by addition of an equal volume (50 μl) Fluor de Lys developer (Biomol) containing Trichostatin A at 2 μM. […] IC50 values for HDAC enzyme inhibitors were determined by performing dose response curves with individual compounds and determining the concentration of inhibitor producing fifty percent decrease in the maximal signal (diluent control).

In the next test the test system is HCT116 cells. In words: In vitro assay of inhibition of proliferation in whole cells (Promega MTS assay). It counts as cell-based. The following applies: Homo sapiens, HCT-116, 72 hours treatment, read-out: Test (b) IC50. On the procedure: (b) In Vitro Assay of Inhibition of Proliferation in Whole Cells
Inhibition of proliferation in whole cells was assayed using the Promega cell titer 96 aqueous proliferation assay (Promega #G5421). HCT116 cells were seeded in 96 well plates at 1×10^3 cells/well, and allowed to adhere overnight. They were treated with inhibitors for 72 hours. 20 μl of the tetrazolium dye MTS was added to each well and the plates were reincubated for 3 hours. Absorbance was then measured on a 96 well plate reader at […]. The IC50 values for HDAC inhibitors were determined by performing dose response curves with individual compounds and determining the concentration of inhibitor producing fifty percent decrease in maximal signal (diluent control).
(In general: Tetrazolium assays rely on reduction of a dye to a coloured formazan, in cell work by metabolically active cells.)

Each structure is given as a SMILES string.

T1 sequence (Q13547 whole entry): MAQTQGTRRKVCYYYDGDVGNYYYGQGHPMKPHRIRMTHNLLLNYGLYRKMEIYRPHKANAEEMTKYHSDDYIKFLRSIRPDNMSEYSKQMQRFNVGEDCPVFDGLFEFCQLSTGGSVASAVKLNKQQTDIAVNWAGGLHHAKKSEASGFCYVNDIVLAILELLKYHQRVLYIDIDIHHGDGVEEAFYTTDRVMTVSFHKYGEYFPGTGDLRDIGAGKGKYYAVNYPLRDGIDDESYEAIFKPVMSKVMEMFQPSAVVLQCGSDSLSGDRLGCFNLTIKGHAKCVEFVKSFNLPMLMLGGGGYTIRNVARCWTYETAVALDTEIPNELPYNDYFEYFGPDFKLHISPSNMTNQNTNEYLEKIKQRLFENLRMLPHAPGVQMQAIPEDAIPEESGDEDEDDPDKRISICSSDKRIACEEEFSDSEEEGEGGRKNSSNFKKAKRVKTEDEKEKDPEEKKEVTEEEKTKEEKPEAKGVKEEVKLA

With `Nc1ccccc1NC(=O)c1ccc(-c2ccccn2)cc1` [Comparator, N-(2-aminophenyl)-4-pyridin-2-ylbenzamide, reference compound], the figures for the IC50 at recombinant human HDAC1 and with HCT116 cells were 89 nM and 2330 nM, respectively.

Consider `Cc1cc(CN2CCN(C(C)C)CC2)cnc1-c1ccc(C(=O)Nc2ccccc2N)cc1` [Example 2, N-(2-aminophenyl)-4-{5-[(4-isopropylpiperazin-1-yl)methyl]-3-methylpyridin-2-yl}benzamide], for which the IC50 on recombinant human HDAC1 is 19 nM; in the test on HCT116 cells, 238 nM.

As to `Cc1cc(CN2CCC2)cnc1-c1ccc(C(=O)Nc2ccccc2N)cc1` [Example 4, N-(2-aminophenyl)-4-[5-(azetidin-1-ylmethyl)-3-methylpyridin-2-yl]benzamide], the IC50 on recombinant human HDAC1 was 21 nM; in the test with HCT116 cells, 310 nM.

What is called IC50 is the concentration that gives 50% inhibition.

Source of the values: patent US20080119451A1, “Novel Benzamide Derivatives” (ASTRAZENECA AB, priority 2005, published 2008).
